Reference: US9028845B2, “Chimeric immunomodulatory compounds and methods of using the same-IV” (Dynavax Technologies Corporation, priority 2001, dated 2015)
“Also recorded” adds a separate entry of the source.

Test system: human PBMCs
Assay: Human PBMC cytokine response assay (IFN-γ and IFN-α in cell-free medium by ELISA), with or without cPLGA;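 for IFN-α (pg/ml) mean: 20 µg/mL compound for 24 hours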;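 for IFN-γ (pg/ml) mean: 20 µg/mL compound for 24 hours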
Format: cell-based
Details: for IFN-a / IFN-g / IFN-a (pg/ml) mean / IFN-g (pg/ml) mean / IFN-a (pg/ml) ×2 / IFN-g (pg/ml) ×4: Table 15; for IFN-a (pg/ml) mean / IFN-g (pg/ml) mean: mean of donors 28185-28188; for IFN-a (pg/ml) ×2: mean ×2; for IFN-g (pg/ml) ×4: mean ×4; for immunomodulatory activity (IFN-γ / IFN-α secretion), in words: used alone (no cPLGA)
[1] = Table 24, mean of donors 28234-28237
[2] = mean of donors 28057-28060, Table 16

5′-TGCTGCA-3′-C3-5′-AGCTTGC-3′-C3-5′-AGATGAT-3′ (No CG) [Compound C-86]
IFN-a (donor 28185): 7 pg/mL
IFN-g (donor 28185): 1 pg/mL
IFN-a (donor 28186): 4 pg/mL
IFN-g (donor 28186): 4 pg/mL
IFN-a (donor 28187): 4 pg/mL
IFN-g (donor 28187): 30 pg/mL
IFN-a (donor 28188): 31 pg/mL
IFN-g (donor 28188): 5 pg/mL
IFN-a (pg/ml) mean: 11 pg/mL
IFN-g (pg/ml) mean: 10 pg/mL
IFN-a (pg/ml) ×2: 22 pg/mL
IFN-g (pg/ml) ×4: 40 pg/mL

(5′-TCGTCGA-3′-HEG)2-glycerol-HEG-5′-TCGTCGA-3′ (phosphodiester) [Compound C-93]
IFN-α (Table 9, donor 28089): 0 pg/mL
IFN-γ (Table 9, donor 28089): 0 pg/mL
IFN-α (Table 9, donor 28090): 30 pg/mL
IFN-γ (Table 9, donor 28090): 0 pg/mL
IFN-α (Table 9, donor 28098): 25 pg/mL
IFN-γ (Table 9, donor 28098): 0 pg/mL
IFN-α (Table 9, donor 28099): 29 pg/mL
IFN-γ (Table 9, donor 28099): 3 pg/mL
IFN-α mean (Table 9, mean of donors): 21 pg/mL
IFN-γ mean (Table 9, mean of donors): 1 pg/mL
IFN-α (Table 11, donor 28042): 7 pg/mL
IFN-γ (Table 11, donor 28042): 8 pg/mL
IFN-α (Table 11, donor 28043): 3 pg/mL
IFN-γ (Table 11, donor 28043): 1 pg/mL
IFN-α (Table 11, donor 28044): 81 pg/mL
IFN-γ (Table 11, donor 28044): 41 pg/mL
IFN-α (Table 11, donor 28045): 61 pg/mL
IFN-γ (Table 11, donor 28045): 17 pg/mL
IFN-α mean (Table 11, mean of donors): 38 pg/mL
IFN-γ mean (Table 11, mean of donors): 17 pg/mL
activity when formulated with cPLGA, in words: significantly more active when formulated with cPLGA; also recorded: active only when formulated
immunomodulatory activity (IFN-γ / IFN-α secretion), in words: inactive as CICs alone

5′-TCGTC-3′-HEG-5′-TCGTC-3′-HEG-5′-TCGTC-3′-HEG-5′-TCGTC-3′ [Compound C-43]
IFN-α (Table 10, donor 28042): 0 pg/mL
IFN-γ (Table 10, donor 28042): 128 pg/mL
IFN-α (Table 10, donor 28043): 14 pg/mL
IFN-γ (Table 10, donor 28043): 536 pg/mL
IFN-α (Table 10, donor 28044): 20 pg/mL
IFN-γ (Table 10, donor 28044): 566 pg/mL
IFN-α (Table 10, donor 28045): 0 pg/mL
IFN-γ (Table 10, donor 28045): 16 pg/mL
IFN-α mean (Table 10, mean of donors): 8 pg/mL
IFN-γ mean (Table 10, mean of donors): 312 pg/mL
activity when formulated with cPLGA, in words: induced considerable IFN-γ and IFN-α when formulated with cPLGA
IFN-γ induction, in words (used alone): induce IFN-γ when used alone

(5′-TCGTCGA-3′-HEG)2-glycerol-HEG-5′-AACGTTC-3′-HEG-5′-TCGA-3′ [Compound C-97]
IFN-α (Table 24, donor 28234): 16 pg/mL
IFN-γ (Table 24, donor 28234): 10 pg/mL
IFN-α (Table 24, donor 28235): 16 pg/mL
IFN-γ (Table 24, donor 28235): 119 pg/mL
IFN-α (Table 24, donor 28236): 140 pg/mL
IFN-γ (Table 24, donor 28236): 269 pg/mL
IFN-α (Table 24, donor 28237): 16 pg/mL
IFN-γ (Table 24, donor 28237): 980 pg/mL
IFN-α mean [1]: 47 pg/mL
IFN-γ mean [1]: 345 pg/mL
IFN-a (donor 28185): 307 pg/mL
IFN-g (donor 28185): 259 pg/mL
IFN-a (donor 28186): 71 pg/mL
IFN-g (donor 28186): 16 pg/mL
IFN-a (donor 28187): 4 pg/mL
IFN-g (donor 28187): 125 pg/mL
IFN-a (donor 28188): 2 pg/mL
IFN-g (donor 28188): 5 pg/mL
IFN-a (pg/ml) mean: 96 pg/mL
IFN-g (pg/ml) mean: 101 pg/mL
IFN-a (pg/ml) ×2: 192 pg/mL
IFN-g (pg/ml) ×4: 405 pg/mL
IFN-α induction, in words (used alone): reduction of IFN-α induction

5′-TCGTCG-3′-(HEG)4-5′-T-3′ [Compound C-16]
IFN-α (donor 28057, Table 16): 0 pg/mL
IFN-γ (donor 28057, Table 16): 1 pg/mL
IFN-α (donor 28058, Table 16): 0 pg/mL
IFN-γ (donor 28058, Table 16): 2 pg/mL
IFN-α (donor 28059, Table 16): 0 pg/mL
IFN-γ (donor 28059, Table 16): 0 pg/mL
IFN-α (donor 28060, Table 16): 0 pg/mL
IFN-γ (donor 28060, Table 16): 6 pg/mL
activity when formulated with cPLGA, in words: all had significant activity when formulated on cPLGA
IFN-α (pg/ml) mean [2]: 0 pg/mL
IFN-γ (pg/ml) mean [2]: 2 pg/mL
immunomodulatory activity (IFN-γ / IFN-α secretion), in words: None of the CICs was active when used alone
